According to PMC11050599, “Novel Tetracyclic Azaphenothiazines with the Quinoline Ring as New Anticancer and Antibacterial Derivatives of Chlorpromazine” (International Journal of Molecular Sciences, 2024):
In brackets after ≈: the same amount, converted by molar mass. Like-named read-outs stand apart in the source and are kept apart here.

What was measured:
[1] = system: S. epidermidis ATCC 35984; test: MIC broth microdilution; assay type: cell-based; details: for MIC: Staphylococcus epidermidis, read-out: MIC S. epidermidis ATCC 35984
Excerpt: (§1) To evaluate the antibacterial effectiveness of chloroquinobenzothiazine derivatives, various bacterial strains from international microbe collections such as the American Type Culture Collection (ATCC) and the National Collection of Type Culture (NCTC) were examined, alongside a panel of clinical rods. This included two Gram-negative organisms, E. coli ATCC 25922 and P. aeruginosa ATCC 15442, and a series of six Gram-positive strains: S. aureus NCTC 4163; S. aureus ATCC 29213, 25923, and 6538; and S. epidermidis ATCC 12228 and 35984. […] The MIC was determined using the two-fold serial broth microdilution method in 96-well microtitration plates containing Mueller-Hinton II broth medium (Becton Dickinson, Franklin Lakes, NJ, USA). The final inoculum for all tested bacteria was adjusted to […] (colony-forming units per milliliter). The stock solution of the tested compounds was prepared in dimethyl sulfoxide (DMSO) and diluted to a maximum of 1% solvent content with a sterile medium.

S. aureus NCTC 4163 = test: MIC broth microdilution; assay type: cell-based; details: Staphylococcus aureus, read-out: MIC S. aureus NCTC 4163
Excerpt: as §1

E. coli ATCC 25922 = test: MIC broth microdilution; assay type: cell-based; details: Escherichia coli, read-out: MIC E. coli ATCC 25922
Excerpt: as §1

P. aeruginosa ATCC 15442 = test: MIC broth microdilution; assay type: cell-based; details: Pseudomonas aeruginosa, read-out: MIC P. aeruginosa ATCC 15442
Excerpt: as §1

S. aureus ATCC 6538 = test: MIC broth microdilution; assay type: cell-based; details: Staphylococcus aureus, read-out: MIC S. aureus ATCC 6538
Excerpt: as §1

[2] = system: S. epidermidis ATCC 12228; test: MIC broth microdilution; assay type: cell-based; details: Staphylococcus epidermidis, read-out: MIC S. epidermidis ATCC 12228
Excerpt: as §1

S. aureus ATCC 25923 = test: MIC broth microdilution; assay type: cell-based; details: Staphylococcus aureus, read-out: MIC S. aureus ATCC 25923
Excerpt: as §1

S. aureus ATCC 29213 = test: MIC broth microdilution; assay type: cell-based; details: Staphylococcus aureus, read-out: MIC S. aureus ATCC 29213
Excerpt: as §1

A549 (lung cancer) = test: MTT assay, A549 cells; assay type: cell-based, human; details: for IC50: Homo sapiens, read-out: IC50 A549
Experimental: (§2) The human cell lines, such as A549 (lung cancer), MDA-MB-231 (breast cancer), MiaPaca-2 (pancreatic cancer), PC3 (metastatic prostate cancer), HCT-116 (colon carcinoma), and HaCaT (immortalized keratinocytes), were sourced from the American Type Culture Collection (ATCC) in Rockville, USA. Culturing conditions varied as follows: HCT116 cells were cultured in MEM (ThermoSci, Waltham, MA, USA), A549, MDA-MB-231, MiaPaca, HaCaT cells in DMEM High Glucose and PC3 cells were cultured in RPMI (Biowest SAS, Nuaillé, France). The growth medium consisted of 10% fetal bovine serum (FBS, Sigma-Aldrich, St. Louis, MO, USA), 20 mM HEPES (Biowest, Nuaillé, France), and antibiotics (100 U/mL of penicillin and 100 μg/mL of streptomycin) from Gibco, Grand Island, NY, USA. […] These compounds were added to 96-well plates containing study cells (1 × 10^4 cells per well) and incubated for 72 h. […] Cell absorbance results were incorporated into the formula for calculating the relative MTT level (%), enabling the assessment of cell viability following exposure to the test compounds. The cell viability percentage represents the MTT reduction in cells treated with the test compounds compared to the control sample, where only the medium was added to the cells.

PC3 (prostate cancer) = test: MTT assay, PC3 cells; assay type: cell-based, human; details: for IC50: Homo sapiens, read-out: IC50 PC3; for SI PC3: SI = IC50 for normal cell line (HaCaT)/IC50 cancer cell line
Experimental: as §2

A549 cells = test: Annexin V-FITC/PI apoptosis flow cytometry, A549; assay type: cell-based, human; details: for A549: Alive / A549: Early Apoptotic / A549: Necrotic / A549: Necrotic/Late Apoptotic: representative dot plot, Figure 4A, IC50, 72 h
Experimental: (§3) To analyze the number of cells in early apoptosis, late apoptosis, or necrosis, A549, MiaPaca-2, and HCT-116 cell lines were cultured in 6-well plates with a seeding density of 1 × 10^5 cells per well. These cells were then treated with selected compounds (4, 5, and 8) at their respective IC50 concentrations and incubated for 72 h. Subsequently, a commercially available kit, the FITC: Annexin V Apoptosis Detection Kit I from BD Biosciences Pharmingen in San Jose, CA, USA, was utilized to assess apoptosis. After 72 h the cells were harvested, washed, and labeled with Annexin V-FITC and propidium iodide (PI) following the manufacturer’s protocol (Becton Dickinson), as previously described. The stained cells were analyzed by flow cytometry. The cells were identified as early apoptotic (Annexin V+/PI−) or late apoptotic/necrotic (Annexin V+/PI+).

HCT116 (colon cancer) = test: MTT assay, HCT116 cells; assay type: cell-based, human; details: for IC50: Homo sapiens, read-out: IC50 HCT116; for SI HCT116: SI = IC50 for normal cell line (HaCaT)/IC50 cancer cell line
Experimental: as §2

[3] = system: HaCaT (immortalized human keratinocytes); test: MTT assay, HaCaT normal cells; assay type: cell-based; details: Homo sapiens, HaCaT, 72 h
Experimental: as §2

[4] = system: MiaPaCa-2 (pancreas cancer); test: MTT assay, MiaPaCa-2 cells; assay type: cell-based, human; details: for IC50: Homo sapiens, read-out: IC50 MiaPaCa-2; for SI MiaPaCa-2: SI = IC50 for normal cell line (HaCaT)/IC50 cancer cell line
Experimental: as §2

[5] = system: MDA-MB-231 (breast cancer); test: MTT assay, MDA-MB-231 cells; assay type: cell-based, human; details: for IC50: Homo sapiens, read-out: IC50 MDA; for SI MDA: SI = IC50 for normal cell line (HaCaT)/IC50 cancer cell line
Experimental: as §2

HCT116 cells [6] = test: Cell cycle analysis by flow cytometry, HCT116; assay type: cell-based, human; details: IC50, 24 h, compared to the control
Experimental: In brief, cells were seeded at a density of 1 × 10^5 cells/well on a six-well plate and allowed to adhere for 24 h. […] Both population cells (the attached and detached) were collected and centrifuged at 400× g for 5 min at 4 °C. After centrifugation, the cells were washed twice with 0.9% NaCl and subsequently fixed in 500 μL of 70 % cold ethanol overnight.
Before analysis, the fixed cells underwent another centrifugation step at 850× g for 5 min at 4 °C and were washed with PBS. Following the washes, the cells were incubated with 50 μL of RNase (100 μg/mL) and 200 μL of propidium iodide (PI) (50 μg/mL) at 37 °C for 30 min in the dark. Finally, 100 μL of PBS was added to each sample. Flow cytometry (Becton Dickinson FACS Verse, Franklin Lakes, NJ, USA) was then used to analyze the cell cycle distribution, identifying cells in various stages including sub-G1, G0/G1, S, and G2/M phases. Each assay was performed in quadruplicate.

HCT116 cells [7] = test: Annexin V-FITC/PI apoptosis flow cytometry, HCT116; assay type: cell-based, human; details: for HCT-116: Alive / HCT-116: Early Apoptotic / HCT-116: Necrotic / HCT-116: Necrotic/Late Apoptotic: representative dot plot, Figure 4C, IC50, 72 h
Experimental: as §3

[8] = MTT, normal cells, read-out: IC50 HaCaT (Table 3)
[9] = MDA-MB-231, MTT, 72 h, MDA-MB231

## Cc1ccc(S(=O)(=O)NCCCCN2c3cc(Cl)ccc3Sc3cc4ccccc4nc32)cc1 [Compound 25, N-(4-(8-Chloroquino[3,2-b]benzo[1,4]thiazin-6-yl)butyl)-4-methylbenzenesulfonamide]
[1]; ATCC35984, 19 h, 35 °C
  MIC: > 256 µg/mL
S. aureus NCTC 4163; NCTC4163, 19 h, 35 °C
  MIC: > 256 µg/mL
E. coli ATCC 25922; ATCC25922, 19 h, 35 °C
  MIC: > 256 µg/mL
P. aeruginosa ATCC 15442; ATCC15442, 19 h, 35 °C
  MIC: > 256 µg/mL
S. aureus ATCC 6538; ATCC6538, 19 h, 35 °C
  MIC: > 256 µg/mL
[2]; ATCC12228, 19 h, 35 °C
  MIC: > 256 µg/mL
S. aureus ATCC 25923; ATCC25923, 19 h, 35 °C
  MIC: > 256 µg/mL
S. aureus ATCC 29213; ATCC29213, 19 h, 35 °C
  MIC: > 256 µg/mL
A549 (lung cancer); A549, MTT, 72 h, mean SD
  IC50: 9.45 ± 1.3 µM
PC3 (prostate cancer); PC-3, MTT, 72 h
  IC50: 48.6 ± 4.7 µM
PC3 (prostate cancer)
  SI PC3: 2.0
A549 cells; compound at IC50, 72 h
  cells in late apoptosis or necrosis, A549: 82%
A549 cells
  A549: Alive: 16.32%
  A549: Early Apoptotic: 0.60%
  A549: Necrotic: 32.75%
  A549: Necrotic/Late Apoptotic: 50.34%
HCT116 (colon cancer); HCT-116, MTT, 72 h
  IC50: > 100 µM
HCT116 (colon cancer)
  SI HCT116: 1.0
[3]; [8]
  IC50: < 100 µM
[3]; MTT, normal cells, read-out: IC50 HaCaT (Table 4)
  IC50: > 100 µM
[4]; MIA PaCa-2, MTT, 72 h
  IC50: > 100 µM
[4]
  SI MiaPaCa-2: 1.0
[5]; [9]
  IC50: > 100 µM
[5]
  SI MDA: 1.0

## CS(=O)(=O)NCCCCN1c2cc(Cl)ccc2Sc2cc3ccccc3nc21 [Compound 23, N-(4-(8-Chloroquino[3,2-b]benzo[1,4]thiazin-6-yl)butyl)methanesulfonamide]
[1]; ATCC35984, 19 h, 35 °C
  MIC: > 256 µg/mL
S. aureus NCTC 4163; NCTC4163, 19 h, 35 °C
  MIC: > 256 µg/mL
E. coli ATCC 25922; ATCC25922, 19 h, 35 °C
  MIC: > 256 µg/mL
P. aeruginosa ATCC 15442; ATCC15442, 19 h, 35 °C
  MIC: > 256 µg/mL
S. aureus ATCC 6538; ATCC6538, 19 h, 35 °C
  MIC: > 256 µg/mL
[2]; ATCC12228, 19 h, 35 °C
  MIC: > 256 µg/mL
S. aureus ATCC 25923; ATCC25923, 19 h, 35 °C
  MIC: > 256 µg/mL
S. aureus ATCC 29213; ATCC29213, 19 h, 35 °C
  MIC: > 256 µg/mL
A549 (lung cancer); A549, MTT, 72 h, mean SD
  IC50: 30.5 ± 8.3 µM
A549 (lung cancer); SI = IC50 for normal cell line (HaCaT)/IC50 cancer cell line
  SI A549: 3.3
HCT116 cells [6]
  increase in the cell amount at the sub-G1 phase, HCT116: 11 fold
  increase in the number of cells in the G2/M phase, HCT116: approximately 1.3 fold
  increase in the number of cells in the S phase, HCT116: approximately 2 fold
PC3 (prostate cancer); PC-3, MTT, 72 h
  IC50: > 100 µM
PC3 (prostate cancer)
  SI PC3: 1.0
HCT116 (colon cancer); HCT-116, MTT, 72 h
  IC50: 0.7 ± 0.08 µM
HCT116 (colon cancer)
  SI HCT116: 143
[3]; [8]
  IC50: > 100 µM
HCT116 cells [7]; compound at IC50, 72 h
  cells in late apoptosis/necrosis, HCT116: 93%
HCT116 cells [7]
  HCT-116: Alive: 3.42%
  HCT-116: Early Apoptotic: 0.76%
  HCT-116: Necrotic: 3.85%
  HCT-116: Necrotic/Late Apoptotic: 91.97%
[4]; MIA PaCa-2, MTT, 72 h
  IC50: 98.4 ± 5.6 µM
[4]
  SI MiaPaCa-2: 1.0
[5]; [9]
  IC50: > 100 µM

## O=C(NCCCl)NCCCN1c2cc(Cl)ccc2Sc2cc3ccccc3nc21 [Compound 20, 1-(3-(8-Chloroquino[3,2-b]benzo[1,4]thiazin-6-yl)propyl)-3-(2-chloroethyl)urea]
[1]; 19 h, 35 °C
  MIC S. epidermidis ATCC 35984: 4 µg/mL (≈ 8.94 µM)
[1]; ATCC35984, 19 h
  MIC: 4 µg/mL (≈ 8.94 µM)
S. aureus NCTC 4163; NCTC4163, 19 h
  MIC: 8 µg/mL (≈ 17.9 µM)
E. coli ATCC 25922; ATCC25922, 19 h
  MIC: > 256 µg/mL
P. aeruginosa ATCC 15442; ATCC15442, 19 h
  MIC: > 256 µg/mL
S. aureus ATCC 6538; ATCC6538, 19 h
  MIC: 8 µg/mL (≈ 17.9 µM)
[2]; ATCC12228, 19 h
  MIC: 8 µg/mL (≈ 17.9 µM)
S. aureus ATCC 25923; ATCC25923, 19 h
  MIC: 8 µg/mL (≈ 17.9 µM)
S. aureus ATCC 29213; ATCC29213, 19 h
  MIC: 8 µg/mL (≈ 17.9 µM)
A549 (lung cancer); A549, 72 h
  IC50: 9.3 ± 1.2 µM
HCT116 cells [6]
  increase in the cell amount at the sub-G1 phase, HCT116: 3 fold
PC3 (prostate cancer); PC-3, 72 h
  IC50: 34.8 ± 9.8 µM
PC3 (prostate cancer)
  SI PC3: 2.8
A549 cells
  A549: Alive: 88.24%
  A549: Early Apoptotic: 0.13%
  A549: Necrotic: 10.74%
  A549: Necrotic/Late Apoptotic: 0.89%
HCT116 (colon cancer); HCT-116, 72 h
  IC50: 10.4 ± 1.6 µM
HCT116 (colon cancer)
  SI HCT116: 8.8
[3]; read-out: IC50 HaCaT (Table 3)
  IC50: > 100 µM
HCT116 cells [7]
  HCT-116: Alive: 83.79%
  HCT-116: Early Apoptotic: 7.24%
  HCT-116: Necrotic: 4.80%
  HCT-116: Necrotic/Late Apoptotic: 4.17%
[4]; MIA PaCa-2, 72 h
  IC50: 23.2 ± 2.7 µM
[4]
  SI MiaPaCa-2: 4.3
[5]; MDA-MB-231, 72 h
  IC50: 48.6 ± 7.3 µM
[5]
  SI MDA: 2.0
